# Results from patent publication US10851073B2, “Protein tyrosine phosphatase inhibitors and methods of use thereof” (Calico Life Sciences LLC, priority 2019, dated 2020).
# System: B16F10 mouse melanoma cells
# Assay: B16F10 IFNγ-induced cellular growth inhibition assay
# Assay type: cell-based
# Settings: B16-F10, with 0.5 ng/mL IFNγ, read-out: B16F10 GI IC50
# Procedure: Example 229: B16F10 IFNγ-Induced Cellular Growth Inhibition Assay B16F10 mouse melanoma cells (ATCC Cat^# CRL-6475, Manassas, Va.) were seeded at a density of 500 cells per well in a 384-well clear bottom plate (Corning Cat^#3765, Corning, N.Y.) in 25 μL total volume of DMEM+10% FBS (Sigma Cat^# D6429 and Sigma Cat^# F4135, St. Louis, Mo.). Cells were allowed to adhere overnight at 37° C.+5% CO2. On the following day, 12.5 μL of mouse IFNγ (RD systems Cat^#485-MI/CF, Minneapolis, Minn.) was added to half of the plate (columns 13-24) at a concentration of 2 ng/mL for a final assay concentration of 0.5 ng/mL of IFNγ. Media only (12.5 μL of DMEM+10% FBS) was added to the remainder of the plate (columns 1-12). Next, compounds resuspended in DMSO (Sigma Cat^# D2650) at 100 mM were diluted in semi-log dilutions in DMSO ranging from 100 mM to 0.001 mM and DMSO only controls were included. The compound/DMSO dilutions were further diluted 1:250 in DMEM+10% FBS, and 12.5 μL of these dilutions were added in triplicates to cells of both treatment arms (with and without IFNγ). Final compound concentrations ranged from 100 μM to 0.001 μM with a final DMSO concentration of 0.1%. Compounds were only dosed in the inner 240 wells, avoiding the outer 2-well perimeter of the plate to minim/ze edge effects. Finally, the plate was loaded into an IncuCyte® S3 Live Cell Analysis System (Essen Bioscience-Sartorius, Ann Arbor, Mich.) maintained in a 37° C.+5% CO2 incubator, allowed to equilibrate for 2 hours, and imaged every 6 hours for 5 days. Confluence over time for compound dilutions in the presence and absence of IFNγ was measured. Growth inhibition values were obtained when the “DMSO/no IFNγ” control reached confluence >95%. At these time points, for each compound the percent growth inhibition at every compound dose level was calculated relative to the “DMSO/with IFNγ” control and used to determine the IC50.
row,Compound,IC50
1,"N[C@H](CCC1CCCCC1)C(=O)N1CCc2cc(O)c(N3CC(=O)NS3(=O)=O)c(F)c2C1 [Compound 250, 5-{2-[(2R)-2-amino-4-cyclohexylbutanoyl]-8-fluoro-6-hydroxy-1,2,3,4-tetrahydroisoquinolin-7-yl}-1λ^6,2,5-thiadiazolidine-1,1,3-trione]",> 100 µM
2,"O=C1CN(c2c(O)cc3c(c2F)CC(NCc2ccccn2)CC3)S(=O)(=O)N1 (centres unmarked) [Compound 155, 5-(1-fluoro-3-hydroxy-7-{[(pyridin-2-yl)methyl]amino}-5,6,7,8-tetrahydronaphthalen-2-yl)-1λ^6,2,5-thiadiazolidine-1,1,3-trione]",10 to 100 µM
3,"O=C1CN(c2c(O)cc3c(c2F)CN(CCN2CCNCC2)CC3)S(=O)(=O)N1 [Compound 247, 5-{8-fluoro-6-hydroxy-2-[2-(piperazin-1-yl)ethyl]-1,2,3,4-tetrahydroisoquinolin-7-yl}-1λ^6,2,5-thiadiazolidine-1,1,3-trione]",10 to 100 µM
4,"O=C1CN(c2c(O)cc3c(c2F)CN(CCCCCC(F)(F)F)CC3)S(=O)(=O)N1 [Compound 161, 5-[8-fluoro-6-hydroxy-2-(6,6,6-trifluorohexyl)-1,2,3,4-tetrahydroisoquinolin-7-yl]-1λ^6,2,5-thiadiazolidine-1,1,3-trione]",10 to 100 µM
5,"NCCCN1CCc2cc(O)c(N3CC(=O)NS3(=O)=O)c(F)c2C1 [Compound 218, 5-[2-(3-aminopropyl)-8-fluoro-6-hydroxy-1,2,3,4-tetrahydroisoquinolin-7-yl]-1λ^6,2,5-thiadiazolidine-1,1,3-trione]",10 to 100 µM

# Now from value to compound:
row,IC50,Compound
1,1 to 10 µM,"O=C1CN(c2c(O)cc3c(c2F)CN(CCC2CCOCC2)CC3)S(=O)(=O)N1 [Compound 214, 5-{8-fluoro-6-hydroxy-2-[2-(oxan-4-yl)ethyl]-1,2,3,4-tetrahydroisoquinolin-7-yl}-1λ^6,2,5-thiadiazolidine-1,1,3-trione]"
2,1 to 10 µM,"O=C1CN(c2c(O)cc3c(c2F)CN(CC[C@H]2C[C@@H](OC(F)(F)F)C2)CC3)S(=O)(=O)N1 [Compound 231, 5-(8-fluoro-6-hydroxy-2-{2-[(1s,3r)-3-(trifluoromethoxy)cyclobutyl]ethyl}-1,2,3,4-tetrahydroisoquinolin-7-yl)-1λ^6,2,5-thiadiazolidine-1,1,3-trione]"
3,10 to 100 µM,"O=C1CN(c2c(O)cc3c(c2F)CN(Cc2ccccn2)CC3)S(=O)(=O)N1 [Compound 184, 5-{8-fluoro-6-hydroxy-2-[(pyridin-2-yl)methyl]-1,2,3,4-tetrahydroisoquinolin-7-yl}-1λ^6,2,5-thiadiazolidine-1,1,3-trione]"
4,1 to 10 µM,"COCCCCN1CCc2cc(O)c(N3CC(=O)NS3(=O)=O)c(F)c2C1 [Compound 293, 5-[8-fluoro-6-hydroxy-2-(4-methoxybutyl)-1,2,3,4-tetrahydroisoquinolin-7-yl]-1λ^6,2,5-thiadiazolidine-1,1,3-trione]"
5,1 to 10 µM,"C[C@H](N)CN1CCc2cc(O)c(N3CC(=O)NS3(=O)=O)c(F)c2C1 [Compound 245, 5-{2-[(2S)-2-aminopropyl]-8-fluoro-6-hydroxy-1,2,3,4-tetrahydroisoquinolin-7-yl}-1λ^6,2,5-thiadiazolidine-1,1,3-trione]"
6,1 to 10 µM,"O=C1CN(c2c(O)cc3c(c2F)CN(CCCN2CCOCC2)CC3)S(=O)(=O)N1 [Compound 229, 5-{8-fluoro-6-hydroxy-2-[3-(morpholin-4-yl)propyl]-1,2,3,4-tetrahydroisoquinolin-7-yl}-1λ^6,2,5-thiadiazolidine-1,1,3-trione]"
7,1 to 10 µM,"O=C1CN(c2c(O)cc3c(c2F)CN(CCC2CCCCC2)CC3)S(=O)(=O)N1 [Compound 179, 5-[2-(2-cyclohexylethyl)-8-fluoro-6-hydroxy-1,2,3,4-tetrahydroisoquinolin-7-yl]-1λ^6,2,5-thiadiazolidine-1,1,3-trione]"

# Same assay, conditions: B16-F10, with 0.5 ng/mL IFNγ, read-out: B16F10 Growth Inhibition IC50
row,IC50,Compound
1,4.1 µM,O=C1CN(c2c(O)cc3ccc(NCCC4CC4)cc3c2F)S(=O)(=O)N1 [Compound X]
2,4.1 µM,CC(C)(C)CCNc1ccc2cc(O)c(N3CC(=O)NS3(=O)=O)c(F)c2c1 [Compound W]
